Results reported in patent US20260191974A1, “B7-H3 TARGETING LIGANDS AND METHODS OF USE” (The University of North Carolina at Chapel Hill, priority 2022, published 2026).
Where a SMILES comes first, the peptide text is derived from it. Bridges are numbered along the chain shown (N, C = ends).

Experiments:
biotinylated B7-H3 = molecular target: T1, biotinylated B7-H3 (Homo sapiens, UniProt Q5ZPR3); test: Surface Plasmon Resonance (SPR) analysis against biotinylated B7-H3; details: biotinylated B7-H3, 25° C., 1:1 binding kinetics model, read-out: binding affinity towards B7-H3
T1 sequence (Q5ZPR3 29-534): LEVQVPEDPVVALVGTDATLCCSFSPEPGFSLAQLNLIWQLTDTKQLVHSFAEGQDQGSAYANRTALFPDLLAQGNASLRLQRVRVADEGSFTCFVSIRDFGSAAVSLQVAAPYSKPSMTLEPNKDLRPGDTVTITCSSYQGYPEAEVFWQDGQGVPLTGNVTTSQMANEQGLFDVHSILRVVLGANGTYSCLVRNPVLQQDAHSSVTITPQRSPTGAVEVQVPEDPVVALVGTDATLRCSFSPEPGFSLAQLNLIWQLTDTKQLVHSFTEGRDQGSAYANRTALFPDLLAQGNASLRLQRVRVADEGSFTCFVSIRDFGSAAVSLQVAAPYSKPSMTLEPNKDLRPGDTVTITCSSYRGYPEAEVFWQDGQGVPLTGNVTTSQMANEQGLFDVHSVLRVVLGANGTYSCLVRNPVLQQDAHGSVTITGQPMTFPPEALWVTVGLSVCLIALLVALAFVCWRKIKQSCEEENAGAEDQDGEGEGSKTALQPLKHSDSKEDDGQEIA
Excerpt: (§1) FIGS. 4A-4G. (FIG. 4A) Selection schematic detailing the selection process for identifying binders against B7-H3. (FIG. 4B) qPCR results of the mTG mediated B7-H3 selection. (FIG. 4C) B7-H3 selection results and complete NGS analysis of B7-H3 hits. (FIG. 4D) NGS data of the selection hits. […] Arrow indicates the peptide pursued for binding validation. (FIG. 4E) EIC ([M+2], 948.91 m/z) traces corresponding to the product of the mTG reaction with linear B1.1 peptide and the synthetic lactam, disulfide peptide. (FIG. 4F) Surface Plasmon Resonance (SPR) analysis of the selected peptide (B1.1), the Met9Nle variant, and the linear variant. […] The selected B1.1 and the Met9Nle variant were analyzed at analyte concentrations of 7.5, 15, 30, 60, 120 nM. The linear variant was analyzed at analyte concentrations of 50, 100, 200, 400, 800 nM. […] (FIG. 4G) Individual SPR curves. Fitted curve and raw data are shown.
(§2) Surface Plasmon Resonance (SPR) analysis. Binding kinetics between our selected peptide (and variants) and biotinylated B7-H3 (B7-H3b) were assessed through SPR analysis using a BIACORE 8K SPR system (GE Healthcare). The running buffer was 1×PBS pH7.5, 0.05% TWEEN® 20 and all analysis was carried out at 25° C. B7-H3b was loaded onto a NeutrAvidin SPR Chip (Series S Sensor Chip NA, 29407997, Cytiva) at a flow rate of […] to a surface density of 1000-1500 response units. Analyte was then injected over a series of five concentrations and quantified by BIACORE single-cycle kinetics method. For our selected peptide (B1.1) and the Met9Nle variant a range of 7.5, 15, 30, 60, 120 nM were run. For the linear variant concentrations of 50, 100, 200, 400, 800 nM were run. Binding sonograms were generated using a standard 1:1 binding kinetics model and kinetics constants determined using standard BIACORE evaluation software.

murine B7-H3 (mB7-H3) = molecular target: T2, murine B7-H3 (mB7-H3) (Mus musculus, UniProt Q8VE98); test: SPR binding to murine B7-H3
T2 sequence (Q8VE98 29-316): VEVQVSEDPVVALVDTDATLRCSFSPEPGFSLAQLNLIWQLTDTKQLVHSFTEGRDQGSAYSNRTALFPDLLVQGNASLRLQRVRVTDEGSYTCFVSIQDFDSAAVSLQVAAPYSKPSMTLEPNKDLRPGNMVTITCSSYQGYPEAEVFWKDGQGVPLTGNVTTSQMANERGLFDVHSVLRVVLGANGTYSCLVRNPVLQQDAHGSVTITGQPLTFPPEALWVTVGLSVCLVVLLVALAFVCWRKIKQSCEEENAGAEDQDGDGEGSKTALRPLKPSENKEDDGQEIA
Experimental: FIGS. 24A-24C. SPR analysis of the selected peptides B1.1 and JP5. The B1.1 variant was analyzed at analyte concentrations of 7.5, 15, 30, 60, and 120 nM (FIG. 24A) and the JP5 variant was analyzed at analyte concentrations of 22.2, 66.6, 200, 600 and 1800 nM (FIG. 24B). (FIG. 24C) Binding kinetics of each peptide.
as §2
Surface plasmon resonance was used to evaluate binding of B1.1 and JP5 to both human and murine B7-H3 (FIGS. 24A-24C).

B7-H3 [1] = test: ka (M^-1s^-1)
Excerpt: (§3) Table printed on a drawing sheet, FIG. 4F
Head of the field: ka (M^-1s^-1)
as §1, with “The patent's description of the figure: FIGS.” for “FIGS.”
(§4) First copying reader's note: Brackets drawn on the SELECTED and MET9NLE sequences join C to C (above) and Q to K (below), marking a bicyclic peptide; LINEAR has no brackets.
(§5) Where the first naming reader finds the target: passage: Binding affinities were assessed for each peptide by surface plasmon resonance (SPR) against biotinylated B7-H3.

B7-H3 [2] = test: kd (s^-1)
Excerpt: as §3
Head of the field: kd (s^-1)
as §1, with “The patent's description of the figure: FIGS.” for “FIGS.”
as §4, §5

In the case of `CSCC[C@@H]1NC(=O)[C@H](CO)NC(=O)[C@H](Cc2c[nH]cn2)NC(=O)[C@@H]2CSSC[C@H](NC(=O)[C@H]([C@@H](C)O)NC(=O)[C@H](Cc3ccc(O)cc3)NC(=O)[C@H](Cc3ccccc3)NC1=O)C(=O)N[C@H](C(=O)N[C@@H](CO)C(=O)NCC(N)=O)CCCCNC(=O)CC[C@H](NC(=O)[C@H](CC(C)C)NC(=O)[C@H](C)NC(=O)[C@H](Cc1c[nH]c3ccccc13)NC(C)=O)C(=O)N[C@@H](CC(C)C)C(=O)N2` [B1.1, acWALQLCHSMFYTCKSG] (Ac-WALELCHSMFYTCKSG-NH2; lactam 4-14; disulfide 6-13), the Kd (biotinylated B7-H3) is reported as 43.5 nM, the KD (murine B7-H3 (mB7-H3)) is reported as “binds to murine B7-H3” and the “ka (M^-1s^-1)” value (B7-H3 [1]) is reported as 1.55e^5. For the same compound, the “kd (s^-1)” value (B7-H3 [2]) was 6.74e^-3.
